According to US20170334877A1, “REVAPRAZAN HYDROCHLORIDE POLYMORPHS AND PREPARATION METHOD THEREFOR” (JIANGSU TASLY DIYI PHARMACEUTICAL CO., LTD., priority 2014, published 2017):
Counter-ions that a name gives are not always drawn.

Key:
Format in all cases: physicochemical
[1] = High temperature test (60° C. incubator); settings: for Appearance color / Loss on drying (%) / Purity (%) / Relevant substances: 60° C., hydrochloride; for Stability (conclusion in words): high temperature, no obvious changes in appearance color, loss on drying, purity, relevant substances
Experimental: Revaprazan hydrochloride crystalline form I is placed in a 60° C. incubator, and is sampled on the 5th day and 10th day for detection, and the results are shown in Table 2. Revaprazan hydrochloride crystalline form II is placed in a 60° C. incubator, and is sampled on the 5th day and 10th day for detection, and the results are shown in Table 6. Revaprazan hydrochloride polymorph III is placed in an incubator of 60° C., and is sampled on the 5th day and the 10th day for detection. Revaprazan hydrochloride crystalline form IV is placed in an incubator of 60° C., and is sampled on the 5th day and the 10th day for detection. Revaprazan hydrochloride crystal form 4 is placed in an incubator of 60° C.; and is sampled on the 5th day and the 10th day for detection, and the results are shown in Table 23.

[2] = High humidity test (25° C., relative humidity 75±5%); settings: for Appearance color / Purity (%) / Weight gain upon moisture absorption (%) / Relevant substances: 25° C., RH 75±5%; for Weight gain upon moisture absorption (in words): high humidity condition; for Stability (conclusion in words): high humidity, no obvious changes in appearance color, purity, relevant substances
Experimental: Revaprazan hydrochloride crystalline form I is placed in an incubator of 25° C. (relative humidity of 75±5%), and is sampled on the 5th day and 10th day for detection. Revaprazan hydrochloride crystalline form II is placed in an incubator of 25° C. (relative humidity of 75±5%), and is sampled on the 5th day and 10th day for detection. Revaprazan hydrochloride polymorph III is placed in an incubator of 25° C. (relative humidity of 75±5%), and is sampled on the 5th day and the 10th day for detection. Revaprazan hydrochloride crystalline form IV is placed in an incubator of 25° C. Revaprazan hydrochloride crystal form 4 is placed in an incubator of 25° C. (the relative humidity is 75±5%), and is sampled on the 5th day and the 10th day for detection.

[3] = Light illumination test (intense light, 4500±500 Lx); settings: for Stability (conclusion in words): intense light illumination, no obvious changes in appearance color, loss on drying, purity, relevant substances; for Appearance color / Loss on drying (%) / Purity (%) / Relevant substances: light 4500±500 Lx; for Loss on drying (%) / Purity (%) / Relevant substances: hydrochloride
Text: Revaprazan hydrochloride crystalline form I is irradiated under such a condition that the light intensity is 4500±500 Lx, and is sampled on the 5th day and 10th day for detection, and the results are shown in Table 1. Revaprazan hydrochloride crystalline form II is irradiated under the condition that the light intensity is 4500±500Lx, and is sampled on the 5th day and 10th day for detection. Revaprazan hydrochloride polymorph III is irradiated under such a condition that the light intensity is 4500±500Lx, and is sampled on the 5th day and 10th day for detection. Revaprazan hydrochloride […] is irradiated under such a condition that the light intensity is 4500±500Lx, and is sampled on the 5th day and the 10th day for detection. Revaprazan hydrochloride crystalline form V is irradiated under the light intensity condition of 4500±500Lx; and is sampled on the 5th day and 10th day for detection.

[4] = Accelerated test (40±2° C., relative humidity 75±5%, 6 months, sealed polyethylene film bag); settings: for Appearance color / Purity (%) / Relevant substances: 40±2° C., RH 75±5%; for Purity (%) / Relevant substances: hydrochloride; for Stability (conclusion in words): accelerated test, no obvious changes in appearance color, purity, relevant substances
Experimental: Revaprazan hydrochloride crystalline form I is sealed in a polyethylene film bag, is placed for 6 months under the conditions that the temperature is 40±2° C. and the relative humidity is 75±5%, and is respectively sampled at the end of the 1st Month, the 2nd Month, the 3rd Month and the 6^thMonth for detection; and the results are shown in Table 4. Revaprazan hydrochloride crystalline form II is sealed in a polyethylene film bag and is placed for 6 months under the conditions that the temperature is 40±2° C. and the relative humidity is 75±5%, and is respectively sampled at the end of the 1st Month, the 2nd Month, the 3rd Month and the 6th Month for detection; and the results are shown in Table 8. Revaprazan hydrochloride crystalline form III is sealed in a polyethylene film bag, is placed for 6 months under the conditions that the temperature is 40±2° C. and the relative humidity is 75±5%, and is sampled at the end of the 1st Month, the 2nd Month, the 3rd Month and the 6th Month for detection. Revaprazan hydrochloride crystalline form IV is sealed in a polyethylene film bag, is placed for 6 months under the conditions that the temperature is 40±2° C. and the relative humidity is 75±5%, and is sampled at the end of the 1st Month, the 2nd Month, the 3rd Month and the 6th Month for detection. Revaprazan hydrochloride crystalline form V is sealed in a polyethylene film bag and is placed for 6 months under the condition that the temperature is 40±2° C. and the relative humidity is 75±5%, and is sampled at the end of the 1st month, the 2nd month, the 3rd month and the 6th month for detection, and the results are shown in Table 20.

[5] = 5th day, listed as revaprazan hydrochloride polymorph III
[6] = 10th day, listed as revaprazan hydrochloride polymorph III
[7] = Day 0, listed as revaprazan hydrochloride polymorph III

Cc1nc(Nc2ccc(F)cc2)nc(N2CCc3ccccc3C2C)c1C (single isomer, unassigned) [revaprazan hydrochloride crystalline form V]
0.29%: Loss on drying (%) ([1]; Day 0)
0%: Weight gain upon moisture absorption (%) ([2]; Day 0)
Undetected: Relevant substances ([1]; 5th day) | Relevant substances ([1]; 10th day) | Relevant substances ([1]; Day 0) | Relevant substances ([3]; 5th day) | Relevant substances ([3]; 10th day) | Relevant substances ([3]; Day 0) | Relevant substances ([4]; 1st month) | Relevant substances ([4]; 2nd month) | Relevant substances ([4]; 3rd month) | Relevant substances ([4]; 6th month) | Relevant substances ([4]; Month 0)
0.66%: Weight gain upon moisture absorption (%) ([2]; 10th day, hydrochloride)
99.96%: Purity (%) ([2]; 10th day, hydrochloride)
0.42%: Weight gain upon moisture absorption (%) ([2]; 5th day, hydrochloride)
slight weight gain: Weight gain upon moisture absorption (in words) [2]
99.95%: Purity (%) ([1]; 5th day) | Purity (%) ([3]; 5th day) | Purity (%) ([3]; 10th day) | Purity (%) ([4]; 2nd month)
White powder: Appearance color ([1]; 5th day) | Appearance color ([1]; 10th day) | Appearance color ([1]; Day 0) | Appearance color ([2]; 5th day) | Appearance color ([2]; 10th day) | Appearance color ([2]; Day 0) | Appearance color ([3]; 5th day) | Appearance color ([3]; 10th day) | Appearance color ([3]; Day 0) | Appearance color ([4]; 1st month) | Appearance color ([4]; 2nd month) | Appearance color ([4]; 3rd month) | Appearance color ([4]; 6th month) | Appearance color ([4]; Month 0)
99.97%: Purity (%) ([4]; 3rd month)
99.98%: Purity (%) ([4]; 1st month)
99.94%: Purity (%) ([1]; Day 0) | Purity (%) ([2]; 5th day, hydrochloride) | Purity (%) ([2]; Day 0, hydrochloride) | Purity (%) ([3]; Day 0) | Purity (%) ([4]; 6th month) | Purity (%) ([4]; Month 0)
0.32%: Loss on drying (%) ([1]; 10th day)
stable: Stability (conclusion in words) [1] | Stability (conclusion in words) [2] | Stability (conclusion in words) [3] | Stability (conclusion in words) [4]
0.27%: Loss on drying (%) ([3]; 5th day)
99.92%: Purity (%) ([1]; 10th day)
0.24%: Loss on drying (%) ([3]; Day 0)
0.30%: Loss on drying (%) ([1]; 5th day) | Loss on drying (%) ([3]; 10th day)

Cc1nc(Nc2ccc(F)cc2)nc(N2CCc3ccccc3C2C)c1C (single isomer, unassigned) [revaprazan hydrochloride crystalline form III]
0%: Weight gain upon moisture absorption (%) ([2]; Day 0)
0.22%: Loss on drying (%) [1, 7]
0.47%: Weight gain upon moisture absorption (%) ([2]; 5th day, hydrochloride)
White powder: Appearance color [1, 5] | Appearance color [1, 6] | Appearance color [1, 7] | Appearance color ([2]; 5th day) | Appearance color ([2]; 10th day) | Appearance color ([2]; Day 0) | Appearance color ([3]; 5th day) | Appearance color ([3]; 10th day) | Appearance color ([3]; Day 0) | Appearance color ([4]; 1st month) | Appearance color ([4]; 2nd month) | Appearance color ([4]; 3rd month) | Appearance color ([4]; 6th month) | Appearance color ([4]; Month 0)
99.95%: Purity (%) [1, 7] | Purity (%) ([2]; Day 0, hydrochloride) | Purity (%) [3, 6] | Purity (%) [3, 7] | Purity (%) ([4]; 6th month) | Purity (%) ([4]; Month 0)
stable: Stability (conclusion in words) [1] | Stability (conclusion in words) [2] | Stability (conclusion in words) [3] | Stability (conclusion in words) [4]
99.94%: Purity (%) [1, 5] | Purity (%) ([2]; 10th day, hydrochloride)
99.91%: Purity (%) ([4]; 2nd month)
0.29%: Loss on drying (%) [3, 6]
slight weight gain: Weight gain upon moisture absorption (in words) [2]
0.26%: Loss on drying (%) [1, 5] | Loss on drying (%) [1, 6]
99.93%: Purity (%) ([4]; 3rd month)
0.28%: Loss on drying (%) [3, 7]
0.25%: Loss on drying (%) [3, 5]
Undetected: Relevant substances [1, 5] | Relevant substances [1, 6] | Relevant substances [1, 7] | Relevant substances ([2]; 5th day, hydrochloride) | Relevant substances ([2]; 10th day, hydrochloride) | Relevant substances ([2]; Day 0, hydrochloride) | Relevant substances [3, 5] | Relevant substances [3, 6] | Relevant substances [3, 7] | Relevant substances ([4]; 1st month) | Relevant substances ([4]; 2nd month) | Relevant substances ([4]; 3rd month) | Relevant substances ([4]; 6th month) | Relevant substances ([4]; Month 0)
0.59%: Weight gain upon moisture absorption (%) ([2]; 10th day, hydrochloride)
99.92%: Purity (%) [1, 6] | Purity (%) ([2]; 5th day, hydrochloride) | Purity (%) [3, 5] | Purity (%) ([4]; 1st month)
